Each compound was assayed on HCT116 MTAP-deleted cell lines (assay: Cell viability assay (CellTiter-Glo, 7 days), HCT116 MTAP-deleted). Settings: Homo sapiens, HCT-116; cell viability assay, HCT116 MTAP-deleted; class symbols; read-out: CC50.
Format: cell-based
Summary of the method: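 First, compounds are serially diluted in DMSO and dispensed into plates, which are frozen until seeding. Next, cells are added and incubated 7 days at 37 °C, 5% CO2, 90% humidity. Finally, CellTiter-Glo reagent is added and luminescence is measured to derive CC50.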
Compound `Cc1ncc2c(N)nc3cc(F)c(C(=O)N(Cc4ccc(C(F)(F)F)cn4)C4(C)CC4)cc3n12` [Ff-589, 4-amino-7-fluoro-1-methyl-N-(1-methylcyclopropyl)-N-((5-(trifluoromethyl)pyridin-2-yl)methyl)imidazo[1,5-a]quinoxaline-8-carboxamide] has a CC50 of less than 100 nM.
For `Cc1ncn2c1c(N)nc1cc(F)c(C(=O)N(Cc3ccc(C(F)(F)F)cn3)C3(C)CC3)cc12` [Ff-590, 4-amino-7-fluoro-3-methyl-N-(1-methylcyclopropyl)-N-((5-(trifluoromethyl)pyridin-2-yl)methyl)imidazo[1,5-a]quinoxaline-8-carboxamide], the CC50 was less than 100 nM.
`CC(C)N(Cc1ccc(-c2ccc(OC(F)F)cc2)cc1F)C(=O)c1cc2c(cc1F)nc(N)c1cncn12` [Ff-591, 4-amino-N-((4′-(difluoromethoxy)-3-fluoro-[1,1′-biphenyl]-4-yl)methyl)-7-fluoro-N-isopropylimidazo[1,5-a]quinoxaline-8-carboxamide] showed a CC50 of less than 100 nM.
`CC(C)N(Cc1ccc(-c2cccc(OC(F)F)c2)cc1F)C(=O)c1cc2c(cc1F)nc(N)c1cncn12` [Ff-592, 4-amino-N-((3′-(difluoromethoxy)-3-fluoro-[1,1′-biphenyl]-4-yl)methyl)-7-fluoro-N-isopropylimidazo[1,5-a]quinoxaline-8-carboxamide] gave a CC50 of less than 100 nM.
Compound `CC(C)N(Cc1ccc(-c2cnn(-c3ccccc3)c2)cc1F)C(=O)c1cc2c(cc1F)nc(N)c1cncn12` [Ff-593, 4-amino-7-fluoro-N-(2-fluoro-4-(1-phenyl-1H-pyrazol-4-yl)benzyl)-N-isopropylimidazo[1,5-a]quinoxaline-8-carboxamide] has a CC50 of less than 100 nM.
In the case of `CC(C)N(Cc1ccc(-c2ccc[nH]c2=O)cc1F)C(=O)c1cc2c(cc1F)nc(N)c1cncn12` [Ff-594, 4-amino-7-fluoro-N-(2-fluoro-4-(2-oxo-1,2-dihydropyridin-3-yl)benzyl)-N-isopropylimidazo[1,5-a]quinoxaline-8-carboxamide], the CC50 is reported as 100 to 1000 nM.
For `Nc1nc2cc(F)c(C(=O)N3CC[C@H]4C[C@@H]3c3ccc(Cl)nc34)cc2n2cncc12` [Ff-595, (4-amino-7-fluoroimidazo[1,5-a]quinoxalin-8-yl)((5R,9S)-2-chloro-5,7,8,9-tetrahydro-6H-5,9-methanopyrido[3,2-c]azepin-6-yl)methanone], the CC50 was 100 to 1000 nM.
`CN(Cc1ccc(Br)c(C(F)F)c1)C(=O)c1cc2c(cc1F)nc(N)c1cncn12` [Ff-596, 4-amino-N-(4-bromo-3-(difluoromethyl)benzyl)-7-fluoro-N-methylimidazo[1,5-a]quinoxaline-8-carboxamide] gave a CC50 of 100 to 1000 nM.
In the case of `Nc1nc2cc(Cl)c(C(=O)N3CC[C@H]4C[C@@H]3c3ccc(OC(F)F)cc34)cc2n2cncc12` [Ff-598, (4-amino-7-chloroimidazo[1,5-a]quinoxalin-8-yl)((1R,5S)-7-(difluoromethoxy)-1,3,4,5-tetrahydro-2H-1,5-methanobenzo[c]azepin-2-yl)methanone], the CC50 is reported as less than 100 nM.
`Nc1nc2cc(Cl)c(C(=O)N3CC[C@H]4C[C@@H]3c3ccc(Cl)cc34)cc2n2cncc12` [Ff-599, (4-amino-7-chloroimidazo[1,5-a]quinoxalin-8-yl)((1R,5S)-7-chloro-1,3,4,5-tetrahydro-2H-1,5-methanobenzo[c]azepin-2-yl)methanone] was tested, and the CC50 was less than 100 nM.
Work on `CN(C(=O)c1cc2c(cc1F)nc(N)c1cncn12)C1COc2cc3ccccc3cc21` (centres unmarked) [Ff-600, 4-amino-N-(2,3-dihydronaphtho[2,3-b]furan-3-yl)-7-fluoro-N-methylimidazo[1,5-a]quinoxaline-8-carboxamide] yielded a CC50 of less than 100 nM.
`Nc1nc2cnc(C(=O)N3CC[C@H]4C[C@@H]3c3ccc(Cl)nc34)cc2n2cncc12` [Ff-602, (4-aminoimidazo[1,5-a]pyrido[3,4-e]pyrazin-8-yl)((5R,9S)-2-chloro-5,7,8,9-tetrahydro-6H-5,9-methanopyrido[3,2-c]azepin-6-yl)methanone] gave a CC50 of 100 to 1000 nM.
`Nc1nc2cc(F)c(C(=O)N3CC[C@H]4C[C@@H]3c3ccc(Cl)cc34)cc2n2cncc12` [Ff-603, (4-amino-7-fluoroimidazo[1,5-a]quinoxalin-8-yl)((1R,5S)-7-chloro-1,3,4,5-tetrahydro-2H-1,5-methanobenzo[c]azepin-2-yl)methanone] showed a CC50 of 100 to 1000 nM.
Compound `CCN(C(=O)c1cc2c(cn1)nc(N)c1cncn12)[C@@H]1COc2cc(C(F)(F)F)ccc21` [Ff-604, (S)-4-amino-N-ethyl-N-(6-(trifluoromethyl)-2,3-dihydrobenzofuran-3-yl)imidazo[1,5-a]pyrido[3,4-e]pyrazine-8-carboxamide] has a CC50 of less than 100 nM.
Work on `CN(C(=O)c1cc2c(cc1F)nc(N)c1cncn12)C1COc2cc(Cl)c(Br)cc21` (centres unmarked) [Ff-608, 4-amino-N-(5-bromo-6-chloro-2,3-dihydrobenzofuran-3-yl)-7-fluoro-N-methylimidazo[1,5-a]quinoxaline-8-carboxamide] yielded a CC50 of less than 100 nM.
With `CN(C(=O)c1cc2c(cc1F)nc(N)c1cncn12)C1COc2cc(Br)c(Cl)cc21` (centres unmarked) [Ff-609, 4-amino-N-(6-bromo-5-chloro-2,3-dihydrobenzofuran-3-yl)-7-fluoro-N-methylimidazo[1,5-a]quinoxaline-8-carboxamide] the CC50 was less than 100 nM.
`CCN(C(=O)c1cc2c(cn1)nc(N)c1c(C)ncn12)[C@@H]1COc2cc(C(F)(F)F)ccc21` [Ff-610, (S)-4-amino-N-ethyl-3-methyl-N-(6-(trifluoromethyl)-2,3-dihydrobenzofuran-3-yl)imidazo[1,5-a]pyrido[3,4-e]pyrazine-8-carboxamide] showed a CC50 of less than 100 nM.
`CCN(C(=O)c1cc2c(cn1)nc(N)c1cnc(C)n12)[C@@H]1COc2cc(C(F)(F)F)ccc21` [Ff-613, (S)-4-amino-N-ethyl-1-methyl-N-(6-(trifluoromethyl)-2,3-dihydrobenzofuran-3-yl)imidazo[1,5-a]pyrido[3,4-e]pyrazine-8-carboxamide] gave a CC50 of less than 100 nM.
Work on `CN(C(=O)c1cc2c(cc1C1CC1)nc(N)c1cncn12)[C@@H]1COc2cc(C(F)(F)F)ccc21` [Ff-614, (S)-4-amino-7-cyclopropyl-N-methyl-N-(6-(trifluoromethyl)-2,3-dihydrobenzofuran-3-yl)imidazo[1,5-a]quinoxaline-8-carboxamide] yielded a CC50 of less than 100 nM.
`Nc1nc2cc(F)c(C(=O)N3CCC[C@@H]4Oc5cc(C(F)(F)F)ccc5[C@@H]43)cc2n2cnc(F)c12` [Ff-621, (4-amino-3,7-difluoroimidazo[1,5-a]quinoxalin-8-yl)((4aS,9bS)-7-(trifluoromethyl)-3,4,4a,9b-tetrahydrobenzofuro[3,2-b]pyridin-1(2H)-yl)methanone] was tested, and the CC50 was 100 to 1000 nM.
`Nc1nc2cc(F)c(C(=O)N3CCC[C@@H]4Oc5cc(C(F)(F)F)ccc5[C@@H]43)cc2n2c(F)ncc12` [Ff-622, (4-amino-1,7-difluoroimidazo[1,5-a]quinoxalin-8-yl)((4aS,9bS)-7-(trifluoromethyl)-3,4,4a,9b-tetrahydrobenzofuro[3,2-b]pyridin-1(2H)-yl)methanone] was tested, and the CC50 was less than 100 nM.
`Cc1ncc2c(N)nc3cc(F)c(C(=O)N4CC[C@H]5C[C@@H]4c4ccc(C(F)(F)F)nc4O5)cc3n12` [Ff-627, (4-amino-7-fluoro-1-methylimidazo[1,5-a]quinoxalin-8-yl)((2S,6R)-9-(trifluoromethyl)-3,4-dihydro-2H-2,6-methanopyrido[2,3-b][1,5]oxazocin-5(6H)-yl)methanone] was tested, and the CC50 was less than 100 nM.
`Cc1ncc2c(N)nc3cc(F)c(C(=O)N4C[C@@H](C)O[C@@H]5Cc6cc(C(F)(F)F)ccc6[C@@H]54)cc3n12` [Ff-629, (4-amino-7-fluoro-1-methylimidazo[1,5-a]quinoxalin-8-yl)((2R,4aS,9aR)-2-methyl-7-(trifluoromethyl)-2,3,9,9a-tetrahydroindeno[2,1-b][1,4]oxazin-4(4aH)-yl)methanone] was tested, and the CC50 was less than 100 nM.
With `C[C@@H]1CN(C(=O)c2ccc3nc(N)c4cncn4c3c2)[C@H]2c3ccc(C(F)(F)F)cc3C[C@H]2O1` [Ff-630, (4-aminoimidazo[1,5-a]quinoxalin-8-yl)((2R,4aS,9aR)-2-methyl-7-(trifluoromethyl)-2,3,9,9a-tetrahydroindeno[2,1-b][1,4]oxazin-4(4aH)-yl)methanone] the CC50 was less than 100 nM.
`Cc1ncc2c(N)nc3ccc(C(=O)N4C[C@@H](C)O[C@@H]5Cc6cc(C(F)(F)F)ccc6[C@@H]54)cc3n12` [Ff-631, (4-amino-1-methylimidazo[1,5-a]quinoxalin-8-yl)((2R,4aS,9aR)-2-methyl-7-(trifluoromethyl)-2,3,9,9a-tetrahydroindeno[2,1-b][1,4]oxazin-4(4aH)-yl)methanone] gave a CC50 of 100 to 1000 nM.
`Cc1ncn2c1c(N)nc1cnc(C(=O)N3CC[C@H]4C[C@@H]3c3cc(F)c(C(F)(F)F)cc3O4)cc12` [Ff-635, (4-amino-3-methylimidazo[1,5-a]pyrido[3,4-e]pyrazin-8-yl)((2S,6R)-8-fluoro-9-(trifluoromethyl)-3,4-dihydro-2H-2,6-methanobenzo[b][1,5]oxazocin-5(6H)-yl)methanone] gave a CC50 of less than 100 nM.
With `Nc1nc2cc(F)c(C(=O)N3CC[C@H]4C[C@@H]3c3cc(F)c(C(F)(F)F)cc3O4)cc2n2cncc12` [Ff-636, (4-amino-7-fluoroimidazo[1,5-a]quinoxalin-8-yl)((2S,6R)-8-fluoro-9-(trifluoromethyl)-3,4-dihydro-2H-2,6-methanobenzo[b][1,5]oxazocin-5(6H)-yl)methanone] the CC50 was less than 100 nM.
`CN(C(=O)c1cc2c(cn1)nc(N)c1cncn12)[C@@H]1COc2cc(C34CC(C(F)(F)F)(C3)C4)ccc21` [Ff-642, (S)-4-amino-N-methyl-N-(6-(3-(trifluoromethyl)bicyclo[1.1.1]pentan-1-yl)-2,3-dihydrobenzofuran-3-yl)imidazo[1,5-a]pyrido[3,4-e]pyrazine-8-carboxamide] gave a CC50 of 100 to 1000 nM.
`Nc1nc2ccc(C(=O)N3C[C@@H](F)C[C@@H]4Oc5cc(C(F)(F)F)ccc5[C@@H]43)cc2n2cncc12` [Ff-649, (4-aminoimidazo[1,5-a]quinoxalin-8-yl)((3S,4aS,9bS)-3-fluoro-7-(trifluoromethyl)-3,4,4a,9b-tetrahydrobenzofuro[3,2-b]pyridin-1(2H)-yl)methanone] gave a CC50 of less than 100 nM.
